Laboratory results from US20060142384A1, “2-Oxyamino-1-cyclopentene-1-nitriles as material protective agents” (priority 2002, published 2006).

What was measured:
Format in all cases: cell-based
Pseudomonas aeroginosa = assay: MIC on Landy agar against bacteria; conditions: 72 h, 3 days at 28° C., 60-70% relative atmospheric humidity, read-out: Minimum inhibitory concentrations Pseudomonas aeroginosa
Description: (§1) A defined Landy Agar was admixed with the active compounds according to the invention in concentrations of […]. The MIC was determined after 3 days of storage at 28° C. and 60-70% relative atmospheric humidity.

Bacillus subtilis = assay: MIC on Landy agar against bacteria; conditions: 72 h, 3 days at 28° C., 60-70% relative atmospheric humidity, read-out: Minimum inhibitory concentrations Bacillus subtilis
Description: as §1

Chaetomium globosum = assay: MIC on malt extract agar against fungi; conditions: 336 h, 2 weeks at 28° C., 60 to 70% relative atmospheric humidity, read-out: Minimum inhibitory concentrations Chaetomium globosum
Description: (§2) The MIC was determined after 2 weeks of storage at 28° C. and 60 to 70% relative atmospheric humidity.

Penicillium brevicaule = assay: MIC on malt extract agar against fungi; conditions: 336 h, 2 weeks at 28° C., 60 to 70% relative atmospheric humidity, read-out: Minimum inhibitory concentrations Penicillium brevicaule
Description: as §2

| Structure (SMILES) | MIC (Pseudomonas aeroginosa) [µg/mL] | MIC (Bacillus subtilis) [µg/mL] | MIC (Chaetomium globosum) [µg/mL] | MIC (Penicillium brevicaule) [µg/mL] |
| --- | --- | --- | --- | --- |
| N#CC1=C(NO)CCC1 [Example 1, 2-(Hydroxyamino)-1-cyclopentene-1-carbonitrile] | < 400 | < 400 | – | – |
| CC(C)C(=O)ON(C(=O)C(C)C)C1=C(C#N)CCC1 [Example 4, N-(2-Cyano-1-cyclopenten-1-yl)-N-(isobutyryloxy)-2-methylpropanamide] | < 400 | < 400 | < 400 | < 400 |

More lines, now with the values ahead:

| MIC (Pseudomonas aeroginosa) [µg/mL] | MIC (Bacillus subtilis) [µg/mL] | MIC (Chaetomium globosum) [µg/mL] | MIC (Penicillium brevicaule) [µg/mL] | Structure (SMILES) |
| --- | --- | --- | --- | --- |
| – | – | < 400 | < 400 | N#CC1=C(NOCc2ccccc2)CCC1 [Example 3, 2-[(Benzyloxy)amino]-1-cyclopentene-1-carbonitrile] |
| – | – | < 400 | < 400 | Cc1ccc(CONC2=C(C#N)CCC2)cc1 [Example 12] |
| – | – | < 400 | < 400 | N#CC1=C(NOCc2ccc(Cl)cc2)CCC1 [Example 14] |
